Measured values: patent US12515963B2, “Nanoparticle composition and method of inhibiting ovarian cancer cell viability” (priority 2019, dated 2026)
pIC50: −log10 of the molar value. Where two headings read alike, the source gives them in different places. Blank lines part the entries; values can stand above or below the compound they belong to.

Key:
[1] = test system: CRL-2945 and U-87 cancer cells; experiment: Activity of the drugs alone on cancer cells; format: cell-based, human; settings: drug alone, data not shown
Protocol: (§1) The cytotoxic effects of Samples 6-1, 6-2, 7-1 and 7-2, glucosamine and Metformin on cancer cells were studied in CRL-2945 (human ovarian carcinoma) and U-87 (human glioblastoma). The doxorubicin resistant CRL-2945 and U-87 cells were generated by exposing the cells to the cytotoxic drug at incrementally increasing concentrations. In this way, resistant sublines were obtained (CRL-2945-R and U-87-R). The cell viability was analyzed in cells treated with different concentrations of Sample 6-1, Sample 6-2, Sample 7-1 and Sample 7-2. The samples were able to reduce viability in a dose-dependent manner. […] The doses were used to calculate IC50 values against the control cells (Table 12).
Higher toxicity of Sample 6-2 can be explained by the fact that Sample 6-2 bears very toxic doxorubicin, which is delivered into the cells with nanoparticles. […] Cancer cells CRL-2945-R and U-87-R were cultured in serum-free media to enrich the populations with cancer stem cells. Thus, enriched cells were tested with the samples.

[2] = test system: vancomycin resistant Leuconostoc mesenteroides VKPM B-4177; experiment: Minimum inhibitory concentration (MIC); format: cell-based
Protocol: (§2) Minimum inhibitory concentration (MIC) was determined to assess antibacterial and antifungal activities of the samples in microorganisms. MIC is the lowest concentration of a drug, which prevents visible growth of bacterium. The tested panel of microorganisms represent a very broad spectrum of microorganisms, including Gram-positive and Gram-negative strains (Staphylococcus aureus vs. Escherichia coli), methicillin resistant strain INA 00761 (Staphylococcus aureus), vancomycin resistant strain VKPM B-4177 (Leuconostoc mesenteroides), fungi strain INA 00760 (Aspergillus niger), and yeast strain RIA259 (Saccharomyces cerevisiae).
(§3) Minimum inhibitory concentration (MIC) was determined to assess the antibacterial potential of the compositions of Example 6 in microorganisms. MIC is the lowest concentration of a drug which prevents visible growth of bacterium. The tested panel of microorganisms represented a very broad spectrum of antibiotic resistant microorganisms. Sample 4-1 and Tetracycline (as control) were tested against multidrug-resistant Salmonella typhimurium DT 104. Sample 4-2 and Amoxicillin (as control) were tested against Bacillus subtilis. Sample 4-3 and Vancomycin (as control) were tested against vancomycin resistant Enterococcus type Van-A and also vancomycin resistant Leuconostoc mesenteroides VKPM B-4177. In all test conditions monometallic silver nanoparticle composition with Miramistin® alone (obtained using a process known in the art) were used as a control. This composition is referred to as “Ag-NPs-Myramistin in Table 8.

[3] = test system: Saccharomyces cerevisiae RIA 259; experiment: Minimum inhibitory concentration (MIC); format: cell-based
Protocol: as §2

[4] = test system: Escherichia coli ATCC 25922; experiment: Minimum inhibitory concentration (MIC); format: cell-based
Protocol: as §2

[5] = test system: Aspergillus niger INA 00760; experiment: Minimum inhibitory concentration (MIC); format: cell-based
Protocol: as §2

[6] = test system: Staphylococcus aureus FDA 209P; experiment: Minimum inhibitory concentration (MIC); format: cell-based
Protocol: as §2

[7] = test system: methicillin resistant Staphylococcus aureus INA 00761; experiment: Minimum inhibitory concentration (MIC); format: cell-based
Protocol: as §2

[8] = test system: U-87-R; experiment: Cancer cell viability (cytotoxic effect), doxorubicin resistant subline; format: cell-based; settings: Homo sapiens, Doxorubicin column
Protocol: as §1

[9] = test system: CRL-2945-R; experiment: as above; format: cell-based; settings: Homo sapiens, Doxorubicin column
Protocol: as §1

[10] = test system: CRL-2945 (human ovarian carcinoma); experiment: Cancer cell viability (cytotoxic effect); format: cell-based; settings: CRL-2945, Doxorubicin column
Protocol: (§4) The cytotoxic effects of Samples 1-1 and 1-3 on cancer cells were studied in HCT-116 (human colon cancer cell lines), CRL-2945 (human ovarian carcinoma) and U-87 (human glioblastoma). Cell viability was analyzed in cells treated with different concentrations of Sample 1-1 and Sample 1-3. Nanoparticle samples were able to reduce viability in a dose-dependent manner. […] The doses were used to calculate IC50 value against the control cells (Table 3).
as §1

[11] = test system: U-87 (human glioblastoma); experiment: Cancer cell viability (cytotoxic effect); format: cell-based; settings: U-87, Doxorubicin column
Protocol: as §4, §1

[12] = test system: multidrug-resistant Salmonella typhimurium DT 104; experiment: Minimum inhibitory concentration (MIC); format: cell-based; settings: Salmonella enterica
Protocol: as §3

[13] = test system: Bacillus subtilis; experiment: Minimum inhibitory concentration (MIC); format: cell-based
Protocol: as §3

Compound: CN(C)C(=N)N=C(N)N [Metformin]
activity alone on cancer cells [1]: did not show any significant activity

Compound: CN[C@H](CC(C)C)C(=O)N[C@H]1C(=O)N[C@@H](CC(N)=O)C(=O)N[C@H]2C(=O)N[C@H]3C(=O)N[C@H](C(=O)N[C@H](C(=O)O)c4cc(O)cc(O)c4-c4cc3ccc4O)[C@H](O)c3ccc(c(Cl)c3)Oc3cc2cc(c3O[C@@H]2O[C@H](CO)[C@@H](O)[C@H](O)[C@H]2O[C@H]2C[C@](C)(N)[C@H](O)[C@H](C)O2)Oc2ccc(cc2Cl)[C@H]1O [Vancomycin]
MIC ([2]; Leuconostoc mesenteroides): > 128 µg/mL

Compound: N[C@H]1C(O)O[C@H](CO)[C@@H](O)[C@@H]1O (stereo partly drawn) [Glucosamine]
activity alone on cancer cells [1]: did not show any significant activity

MIC ([3]; RIA259, read-out: MIC): 20 µg/mL
MIC ([4]; ATCC25922, read-out: MIC): 20 µg/mL
MIC ([5]; INA00760, read-out: MIC): 20 µg/mL
MIC ([6]; FDA209P, read-out: MIC): 5 µg/mL
MIC ([7]; read-out: MIC): 10 µg/mL
MIC ([2]; Leuconostoc mesenteroides VKPM B-4177, read-out: MIC): 10 µg/mL
Compound: CCCCCCCCCCCCCC(=O)NCCC[N+](C)(C)Cc1ccccc1.[Cl-] [Miramistin ®, benzyl-dimethyl-[3-(tetradecanoylamino)propyl]ammonium chloride]

Compound: COc1cccc2c1C(=O)c1c(O)c3c(c(O)c1C2=O)C[C@@](O)(C(=O)CO)C[C@@H]3O[C@H]1C[C@H](N)[C@H](O)[C@H](C)O1 [Doxorubicin]
pIC50 [8]: 5.92
pIC50 [9]: 6.55
pIC50 [10]: 6.89
pIC50 [11]: 7.10

MIC [12]: > 128 µg/mL
Compound: CN(C)[C@@H]1C(O)=C(C(N)=O)C(=O)[C@@]2(O)C(O)=C3C(=O)c4c(O)cccc4[C@@](C)(O)[C@H]3C[C@@H]12 [Tetracycline]

Compound: CC1(C)S[C@@H]2[C@H](NC(=O)[C@H](N)c3ccc(O)cc3)C(=O)N2[C@H]1C(=O)O [Amoxicillin]
MIC [13]: > 128 µg/mL

Compound: O=[N+]([O-])[O-].[Ag+] [Silver Nitrate, silver nitrate]
MIC [3]: 10 µg/mL
MIC [4]: 10 µg/mL
MIC [5]: 20 µg/mL
MIC [6]: 20 µg/mL
MIC [7]: 5 µg/mL
MIC ([2]; Leuconostoc mesenteroides VKPM B-4177): 5 µg/mL
